Data from patent US9133126B2, “Fluoroalkyl dibenzoazepinone compounds” (BRISTOL-MYERS SQUIBB COMPANY, priority 2012, dated 2015).

Assay: in vitro
Conditions: human, liver microsomes, pH 7.4

Structure (SMILES)	half-life at 0.5 μM
CCC[C@H](C(N)=O)[C@@H](CCC(F)(F)F)C(=O)N[C@@H]1C(=O)Nc2c(F)cccc2-c2ccccc21 [Example 9, (2R,3S)-N-(4-Fluoro-6-oxo-6,7-dihydro-5H-dibenzo[b,d]azepin-7-yl)-3-propyl-2-(3,3,3-trifluoropropyl)succinamide]	≥ 40 min
NC(=O)[C@@H](c1ccccc1)[C@@H](CCC(F)(F)F)C(=O)N[C@@H]1C(=O)Nc2ccccc2-c2ccccc21 [Example 6, (2R,3R)-N-((7S)-6-Oxo-6,7-dihydro-5H-dibenzo[b,d]azepin-7-yl)-3-phenyl-2-(3,3,3-trifluoropropyl)succinamide]	≥ 40 min
Cc1cccc2c1NC(=O)[C@@H](NC(=O)[C@H](CCC(F)(F)F)[C@H](CCC(F)(F)F)C(N)=O)c1cc(F)ccc1-2 [Example 10, (2R,3S)-N-((7S)-9-Fluoro-4-methyl-6-oxo-6,7-dihydro-5H-dibenzo[b,d]azepin-7-yl)-2,3-bis(3,3,3-trifluoropropyl)succinamide]	≥ 40 min
NC(=O)[C@@H](CCC(F)(F)F)[C@@H](CCC(F)(F)F)C(=O)N[C@@H]1C(=O)Nc2c(Cl)cccc2-c2ccccc21 [Example 8, (2R,3S)-N-(4-Chloro-6-oxo-6,7-dihydro-5H-dibenzo[b,d]azepin-7-yl)-2,3-bis(3,3,3-trifluoropropyl)succinamide]	≥ 40 min
Cc1cccc2c1NC(=O)[C@@H](NC(=O)[C@H](CCC(F)(F)F)[C@H](CC1CC1)C(N)=O)c1cc(F)ccc1-2 [Example 11, (2R,3S)-3-(Cyclopropylmethyl)-N-((7S)-9-fluoro-4-methyl-6-oxo-6,7-dihydro-5H-dibenzo[b,d]azepin-7-yl)-2-(3,3,3-trifluoropropyl)succinamide]	≥ 40 min

More lines, now with the values ahead:

half-life at 0.5 μM	Structure (SMILES)
≥ 40 min	NC(=O)[C@@H](CC1CC1)[C@@H](CCC(F)(F)F)C(=O)N[C@@H]1C(=O)Nc2c(F)cccc2-c2ccccc21 [Example 5, (2R,3S)-3-(Cyclopropylmethyl)-N-((7S)-4-fluoro-6-oxo-6,7-dihydro-5H-dibenzo[b,d]azepin-7-yl)-2-(3,3,3-trifluoropropyl)succinamide]
≥ 40 min	NC(=O)[C@@H](CC1CC(F)(F)C1)[C@@H](CCC(F)(F)F)C(=O)N[C@@H]1C(=O)Nc2ccccc2-c2ccccc21 [Example 7, (2R,3S)-3-((3,3-difluorocyclobutyl)methyl)-N-((7S)-6-oxo-6,7-dihydro-5H-dibenzo[b,d]azepin-7-yl)-2-(3,3,3-trifluoropropyl)succinamide]
≥ 40 min	CCC[C@@H](C(=O)N[C@@H]1C(=O)Nc2ccccc2-c2ccccc21)[C@H](CCC(F)(F)F)C(N)=O [Example 4, (2R,3S)-N-((7S)-6-Oxo-6,7-dihydro-5H-dibenzo[b,d]azepin-7-yl)-2-propyl-3-(3,3,3-trifluoropropyl)succinamide]
≥ 40 min	NC(=O)[C@@H](CC1CC1)[C@@H](CCC(F)(F)F)C(=O)N[C@@H]1C(=O)Nc2ccccc2-c2ccccc21 [Example 3, (2R,3S)-3-(Cyclopropylmethyl)-N-((7S)-6-oxo-6,7-dihydro-5H-dibenzo[b,d]azepin-7-yl)-2-(3,3,3-trifluoropropyl)succinamide]
≥ 40 min	CCC[C@H](C(N)=O)[C@@H](CCC(F)(F)F)C(=O)N[C@@H]1C(=O)Nc2ccccc2-c2ccccc21 [Example 2, (2R,3S)-N-((7S)-6-Oxo-6,7-dihydro-5H-dibenzo[b,d]azepin-7-yl)-3-propyl-2-(3,3,3-trifluoropropyl)succinamide]
